# Test results taken from the supplement of paper PMC5908809.
# What was measured:
# Test in all cases: percent inhibition of viability; higher = more inhibition
# [1] = system: normal NK cells expanded with K562-aAPC; details: 72 h, IL-2 2.5 ng/mL
# Description: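 Drug sensitivity and resistance testing on K562-aAPC-expanded normal NK cells: 5 concentrations (10-fold steps over a 10,000-fold range), 72 h at 37 °C, viability by CellTiter-Glo normalised to DMSO and benzethonium chloride controls; DSS from the fitted curve.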
# DERL-7 (IL-2 2.5 ng/mL) = details: 72 h
# IMC-1 (IL-2 20 ng/mL) = details: 72 h
# KAI3 (IL-2 2.5 ng/mL) = details: 72 h
# KHYG-1 (IL-2 2.5 ng/mL) = details: 72 h
# NK-92 (IL-2 2.5 ng/mL) = details: 72 h
# NK-YS (IL-2 2.5 ng/mL) = details: 72 h
# NKL (IL-2 2.5 ng/mL) = details: 72 h
# SNK-6 (IL-2 2.5 ng/mL) = details: 72 h
structure (smiles),measurement,setting,value
CC(C)C[C@H](NC(=O)[C@H](Cc1ccccc1)NC(=O)c1cnccn1)B(O)O [Bortezomib] (max concentration tested 1000 nM),percent inhibition of viability,[1]; 0.1 nM,-2.23%
same,percent inhibition of viability,[1]; 1 nM,4.9%
same,percent inhibition of viability,[1]; 10 nM,100%
same,percent inhibition of viability,[1]; 100 nM,101%
same,percent inhibition of viability,[1]; 1000 nM,100%
same,percent inhibition of viability,DERL-7 (IL-2 2.5 ng/mL); 0.1 nM,-10.9%
same,percent inhibition of viability,DERL-7 (IL-2 2.5 ng/mL); 1 nM,21.2%
same,percent inhibition of viability,DERL-7 (IL-2 2.5 ng/mL); 10 nM,101%
same,percent inhibition of viability,DERL-7 (IL-2 2.5 ng/mL); 100 nM,101%
same,percent inhibition of viability,DERL-7 (IL-2 2.5 ng/mL); 1000 nM,100%
same,percent inhibition of viability,IMC-1 (IL-2 20 ng/mL); 0.1 nM,-1.29%
same,percent inhibition of viability,IMC-1 (IL-2 20 ng/mL); 1 nM,-3.94%
same,percent inhibition of viability,IMC-1 (IL-2 20 ng/mL); 10 nM,101%
same,percent inhibition of viability,IMC-1 (IL-2 20 ng/mL); 100 nM,101%
same,percent inhibition of viability,IMC-1 (IL-2 20 ng/mL); 1000 nM,101%
same,percent inhibition of viability,KAI3 (IL-2 2.5 ng/mL); 0.1 nM,-14.4%
same,percent inhibition of viability,KAI3 (IL-2 2.5 ng/mL); 1 nM,-0.34%
same,percent inhibition of viability,KAI3 (IL-2 2.5 ng/mL); 10 nM,102%
same,percent inhibition of viability,KAI3 (IL-2 2.5 ng/mL); 100 nM,105%
same,percent inhibition of viability,KAI3 (IL-2 2.5 ng/mL); 1000 nM,97%
same,percent inhibition of viability,KHYG-1 (IL-2 2.5 ng/mL); 0.1 nM,-3.11%
same,percent inhibition of viability,KHYG-1 (IL-2 2.5 ng/mL); 1 nM,-0.47%
same,percent inhibition of viability,KHYG-1 (IL-2 2.5 ng/mL); 10 nM,105%
same,percent inhibition of viability,KHYG-1 (IL-2 2.5 ng/mL); 100 nM,108%
same,percent inhibition of viability,KHYG-1 (IL-2 2.5 ng/mL); 1000 nM,100%
same,percent inhibition of viability,NK-92 (IL-2 2.5 ng/mL); 0.1 nM,-4.96%
same,percent inhibition of viability,NK-92 (IL-2 2.5 ng/mL); 1 nM,-5.77%
same,percent inhibition of viability,NK-92 (IL-2 2.5 ng/mL); 10 nM,102%
same,percent inhibition of viability,NK-92 (IL-2 2.5 ng/mL); 100 nM,107%
same,percent inhibition of viability,NK-92 (IL-2 2.5 ng/mL); 1000 nM,98.3%
same,percent inhibition of viability,NK-YS (IL-2 2.5 ng/mL); 0.1 nM,-5.54%
same,percent inhibition of viability,NK-YS (IL-2 2.5 ng/mL); 1 nM,-1.32%
same,percent inhibition of viability,NK-YS (IL-2 2.5 ng/mL); 10 nM,104%
same,percent inhibition of viability,NK-YS (IL-2 2.5 ng/mL); 100 nM,106%
same,percent inhibition of viability,NK-YS (IL-2 2.5 ng/mL); 1000 nM,98.5%
same,percent inhibition of viability,NKL (IL-2 2.5 ng/mL); 0.1 nM,-12.9%
same,percent inhibition of viability,NKL (IL-2 2.5 ng/mL); 1 nM,-8.26%
same,percent inhibition of viability,NKL (IL-2 2.5 ng/mL); 10 nM,105%
same,percent inhibition of viability,NKL (IL-2 2.5 ng/mL); 100 nM,107%
same,percent inhibition of viability,NKL (IL-2 2.5 ng/mL); 1000 nM,98.5%
same,percent inhibition of viability,SNK-6 (IL-2 2.5 ng/mL); 0.1 nM,21.6%
same,percent inhibition of viability,SNK-6 (IL-2 2.5 ng/mL); 1 nM,12.7%
